Reference: patent publication US8450333B2, “Molecules for regulating cell death” (The Regents of The University of California, priority 2003, dated 2013)

How the values were obtained:
wild type yeast cells = test: Mitochondrial morphology in yeast (secondary screen, mitochondrial targeted GFP); format: cell-based, S. cerevisiae
Description: Secondary screens: Compounds identified in the primary growth assay-based screens outlined above are screened secondarily by examining their effects on mitochondrial morphology. We use the steady state structure of mitochondria as an indicator of the relative rates of mitochondrial fission and fusion in cells. […] Mitochondria are visualized using a mitochondrial targeted GFP that is efficiently targeted to both wild type and respiratory deficient mitochondria (Tieu et al., 2000 The Journal of Cell Biology 151, 353-365.).
All compounds identified in the primary growth assay-based screens outlined above were screened secondarily by examining their effects on mitochondrial morphology in yeast. From previous work, we know that the steady state structure of mitochondria is an indicator of the relative rates of mitochondrial fission and fusion in cells (FIG. 7). Specifically, net-like structures indicate a block in fission, and fragmented mitochondrial structures indicate a block in fusion. […] In this secondary assay, small molecules were judged to be a hit if they produced a mutant phenotype in greater than 5% of the cell population.
To determine what structural features are important for the effects of mfisi-1 on mitochondrial fission, we identified structurally related molecules using a chemoinformatics approach. We utilized web-based ChemNavigator to search available public and commercial compound databases for small molecules that uniquely represented key structural features of mfisi-1. We tested a total of 15 small molecules related to mfisi-1 for their effects on mitochondrial morphology in yeast, each at a concentration of 50 μM (Table 3).

mammalian COS cells [1] = test: Mitochondrial morphology in mammalian COS cells; format: cell-based
Description: Drp1, the mammalian mitochondrial fission DRP, has a high degree of similarity and identity to its yeast ortholog, Dnm1. This encouraged us to exploit the chemical genetic approach and examine the effects of mfisi-1 on mitochondrial morphology in mammalian cells. In mammalian cells, it has been established that when fission is retarded by expression of dominant-negative Drp1, mitochondria become progressively more interconnected, form net-like structures, and collapse into degenerate perinuclear structures in cells. Remarkably, the addition of mfisi-1 to mammalian COS cells in culture caused a rapid and reversible change in mitochondrial morphology equivalent to that observed upon expression of dominant negative Drp1 in double-binded experiments (FIG. 12, n=100: untreated; 0% collapsed nets, 14% loose nets, 70% reticular, 15% fragmented; mfisi-1 treated; n=100, 19% collapsed nets, 45% loose nets, 36% reticular, 0% fragmented). The EC50 of mfisi-1 effects on mitochondrial morphology in mammalian cells is similar to that observed for the effect of mfisi-1 on mitochondrial morphology in yeast (EC50=10 µM).

mammalian COS cells [2] = test: Mitochondrial fragmentation induced by staurosporine (STS) in COS cells; format: cell-based; settings: COS cells stimulated with STS; mfisi-1 at 50 μM; n=100
Description: As indicated above, we observed that mfisi-1 causes changes in mitochondrial morphology in mammalian cells that are consistent with a block in mitochondrial fission. Thus, we examined the effects of mfisi-1 on mitochondrial fragmentation caused by the intrinsic apoptotic stimulus staurosporine (STS) in mammalian COS cells. […] These observations indicate that mfisi-1 retards apoptosis-stimulated Drp1-dependent mitochondrial fission.

yeast cells = test: Time-lapse fluorescence microscopy of mitochondrial fission and fusion events in yeast; format: cell-based, S. cerevisiae; settings: time-lapse after drug addition
Description: To distinguish whether compounds specifically affect mitochondrial fission or fusion, we directly measure the rates of these events by examining the behavior of mitochondria using time-lapse fluorescence microscopy after drug addition. We routinely perform this type of experiment using a DeltaVision deconvolution microscope.
Formally, the small molecules we identified could produce their phenotypes by either inhibiting or activating fission or fusion. To distinguish the exact effects of mfisi-1 and other small molecules identified in our screens on mitochondrial dynamics, we have directly measured the rates of fission and fusion events after drug addition in yeast cells by examining the behavior of mitochondria using time-lapse fluorescence microscopy. […] In contrast, in DMSO treated control cells, both fission and fusion events were easily detected in the same time frame.

[3] = tested on: actin cytoskeleton and peripheral ER network; test: Actin cytoskeleton and peripheral ER network in yeast; format: cell-based; settings: 100 μM, versus DMSO-treated cells, n=50
Description: These structures are routinely examined in yeast mitochondrial morphology mutants as a test for the specificity of the mitochondrial phenotype.

[4] = Structure Function Analysis of A1, A2, and A3, fraction of yeast cells
[5] = fraction of wild type yeast cells

Q: Which “effect on mitochondrial morphology in yeast cells” value (wild type yeast cells) does the source give for `COc1cc(-n2c(S)nc3ccccc3c2=O)c(Cl)cc1Cl` [mfisi-1, 3-(2,4-Dichloro-5-methoxy-phenyl)-2-mercapto-3H-quinazolin-4-one] here?
A: Its value is “caused the formation of mitochondrial net-like structures”.

Q: And the IC50 (wild type yeast cells; Saccharomyces cerevisiae, read-out: IC50, formation of net-like mitochondria)?
A: The IC50 was 10 to 20 µM.

Q: What about the Fragmented (wild type yeast cells; [4]) of the same molecule?
A: The Fragmented was “.05”.

Q: And the Nets (wild type yeast cells; [4])?
A: The Nets was “.55”.

Q: What about the Reticular (wild type yeast cells; [4]) of the same molecule?
A: The Reticular was “.40”.

Q: What about the “Mitochondrial Morphology after Drug is Added: Fragmented” value (wild type yeast cells; [5]) of the same molecule?
A: The value was “.05”.

Q: What about the “Mitochondrial Morphology after Drug is Added: Nets” value (wild type yeast cells; [5]) of the same molecule?
A: Its value is “.55”.

Q: And the “Mitochondrial Morphology after Drug is Added: Reticular” value (wild type yeast cells; [5])?
A: The value was “.40”.

Q: What about the “time after addition until net-like mitochondria form” value (wild type yeast cells; wild type cells, sub-μM concentrations) of the same molecule?
A: The value was no more than 1 min.

Q: What about the “% net-like structures” value (wild type yeast cells; yeast, each at a concentration of 50 μM) of the same molecule?
A: The value was 60%.

Q: What about the “% collapsed nets” value (mammalian COS cells [1]; COS cells, n=100) of the same molecule?
A: Its value is 19%.

Q: What about the “% fragmented” value (mammalian COS cells [1]; COS cells, n=100) of the same molecule?
A: Its value is 0%.

Q: And the “% loose nets” value (mammalian COS cells [1]; COS cells, n=100)?
A: Its value is 45%.

Q: And the “% reticular” value (mammalian COS cells [1]; COS cells, n=100)?
A: The value was 36%.

Q: What about the EC50 (mammalian COS cells [1]; COS, mammalian cells, similar to yeast, read-out: EC50, effects on mitochondrial morphology) of the same molecule?
A: The EC50 was 10 µM.

Q: And the “% collapsed nets” value (mammalian COS cells [2])?
A: The value was 0%.

Q: And the “% fragmented” value (mammalian COS cells [2])?
A: Its value is 46%.

Q: What about the “% loose nets” value (mammalian COS cells [2]) of the same molecule?
A: The value was 8%.

Q: And the “% reticular” value (mammalian COS cells [2])?
A: The value was 46%.

Q: And the “mitochondrial fission events / rate of fission” value (yeast cells)?
A: Its value is “no detectable fission events were observed”.

Q: And the “mitochondrial fusion events / rate of fusion” value (yeast cells)?
A: Its value is “fusion events occurred”.

Q: What about the “changes in actin cytoskeleton or peripheral ER network” value [3] of the same molecule?
A: Its value is “did not result in significant changes”.
